# According to patent publication US20100292279A1, “Bis-(Sulfonylamino) Derivatives in Therapy” (ASTRAZENECA AB, priority 2009, published 2010):
# Target: T1, human mPGES-1 (Homo sapiens, UniProt O14684)
# T1 construct: host or cells: microsomes
# T1 sequence (O14684 1-152): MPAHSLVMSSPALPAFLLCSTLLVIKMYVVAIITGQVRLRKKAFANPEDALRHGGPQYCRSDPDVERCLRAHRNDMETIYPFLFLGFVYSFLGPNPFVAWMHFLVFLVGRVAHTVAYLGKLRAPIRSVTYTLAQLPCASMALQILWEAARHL
# Assay: Microsomal prostaglandin E synthase biochemical assay
# Conditions: microsome preparation containing human mPGES-1; substrate PGH2 10.8 μM, GSH 2.5 mM, pH 6.8; PGE2 by HTRF; average of at least n=2
# Experimental: Compounds were tested as inhibitors of microsomal prostaglandin E synthase activity in microsomal prostaglandin E synthase assays and whole cell assays. These assays measure prostaglandin E2 (PGE2) synthesis which is taken as a measure of prostaglandin E synthase activity. Microsomal prostaglandin E synthase biochemical assays used microsomal prostaglandin E synthase-1 in microsomal preparations. The source of the microsomes can be for example interleukin-1β-stimulated human A549 cells (which express human mPGES-1) or Sf9 cells transfected with plasmids encoding human mPGES-1 cDNA.
# A solution of test compound was added to a diluted microsome preparation containing is human mPGES-1 and pre-incubated for 15 minutes in potassium phosphate buffer pH 6.8 with cofactor glutathione (GSH). Corresponding solutions without test compound were used as positive controls, and corresponding solutions without test compound and without microsomes were used as negative controls. The enzymatic reaction was then started by addition of the substrate PGH2 in an organic solution (dry acetonitrile).
# The reaction was stopped after one minute by adding an acidic solution (pH 1.9) of ferric chloride and citrate (final concentrations 7 mM and 47 mM respectively), by which the PGH2 was sequestered (the PGH2 is reduced to mainly 12-hydroxy heptadecatrineoic acid (12-HHT) which is not detected by the subsequent PGE2 detection step). The resulting solution was then pH neutralized by addition of potassium phosphate buffer, prior to diluting an aliquot of the resulting solution in a weak potassium phosphate buffer (50 mM, pH 6.8) containing 0.2% BSA (w/v). […] The PGE2 formed was quantified by use of a commercial HTRF based kit (catalogue #62PG2PEC or #62P2APEC from Cisbio International). 100% activity was defined as the PGE2 production in positive controls subtracted by the PGE2 production in the negative controls. IC50 values were then determined using standard procedures.
row,IC50 [nM],Compound
1,12,"COc1cc(C(=O)NS(=O)(=O)c2ccccc2S(N)(=O)=O)ccc1C#Cc1cccc(C)c1 [Example 18, 3-Methoxy-N-(2-sulfamoylphenylsulfonyl)-4-(m-tolylethynyl)benzamide]"
2,11,"COc1cc(C(=O)NS(=O)(=O)c2ccccc2S(N)(=O)=O)ccc1C#Cc1ccccc1C [Example 14, 3-Methoxy-N-(2-sulfamoylphenylsulfonyl)-4-(o-tolylethynyl)benzamide]"
3,7.3,"COc1cc(C(=O)NS(=O)(=O)c2ccccc2S(N)(=O)=O)ccc1C#Cc1cccc(Cl)c1 [Example 19, 4-((3-Chlorophenyl)ethynyl)-3-methoxy-N-(2-sulfamoylphenylsulfonyl)benzamide]"
4,190,"COc1cc(C(=O)NS(=O)(=O)c2ccccc2S(N)(=O)=O)ccc1C#CC(C)C [Example 74, 3-Methoxy-4-(3-methylbut-1-ynyl)-N-(2-sulfamoylphenylsulfonyl)benzamide]"
5,85,"CC(C)C#Cc1ccc(C(=O)NS(=O)(=O)c2ccccc2S(N)(=O)=O)cc1OC(C)C [Example 26, 3-Isopropoxy-4-(3-methylbut-1-ynyl)-N-(2-sulfamoylphenylsulfonyl)benzamide]"
6,26,"CC(C)C#Cc1ccc(C(=O)NS(=O)(=O)c2ccccc2S(N)(=O)=O)cc1OCCOCC(F)(F)F [Example 51, 4-(3-Methylbut-1-ynyl)-N-(2-sulfamoylphenylsulfonyl)-3-(2-(2,2,2-trifluoroethoxy)ethoxy)benzamide]"
7,34,"CC(C)C#Cc1ccc(C(=O)NS(=O)(=O)c2ccccc2S(N)(=O)=O)cc1OCC1CC1 [Example 23, 3-(Cyclopropylmethoxy)-4-(3-methylbut-1-ynyl)-N-(2-sulfamoylphenylsulfonyl)benzamide]"
8,25,"CC(C)C#Cc1ccc(C(=O)NS(=O)(=O)c2ccccc2S(N)(=O)=O)cc1OCC(F)(F)F [Example 53, 4-(3-Methylbut-1-ynyl)-N-(2-sulfamoylphenylsulfonyl)-3-(2,2,2-trifluoroethoxy)benzamide]"
9,24,"CC(C)C#Cc1ccc(C(=O)NS(=O)(=O)c2ccccc2S(N)(=O)=O)cc1OCC(F)(F)C(F)F [Example 58, 4-(3-Methylbut-1-ynyl)-N-(2-sulfamoylphenylsulfonyl)-3-(2,2,3,3-tetrafluoropropoxy)benzamide]"
10,80,"CC(C)C#Cc1ccc(C(=O)NS(=O)(=O)c2ccccc2S(N)(=O)=O)cc1COCCC(F)(F)F [Example 55, 4-(3-Methylbut-1-ynyl)-N-(2-sulfamoylphenylsulfonyl)-3-((3,3,3-trifluoropropoxy)methyl)benzamide]"
11,16,"COc1cc(C(=O)NS(=O)(=O)c2ccccc2S(N)(=O)=O)ccc1C#Cc1ccc(F)cc1 [Example 16, 4-((4-Fluorophenyl)ethynyl)-3-methoxy-N-(2-sulfamoylphenylsulfonyl)benzamide]"

# The remaining lines, values behind:
row,Compound,IC50 [nM]
1,"CC(C)C#Cc1ccc(C(=O)NS(=O)(=O)c2ccccc2S(N)(=O)=O)cc1OCCC(C)(C)O [Example 25, 3-(3-Hydroxy-3-methylbutoxy)-4-(3-methylbut-1-ynyl)-N-(2-sulfamoylphenylsulfonyl)benzamide]",130
2,"COc1cc(C(=O)NS(=O)(=O)c2ccccc2S(N)(=O)=O)ccc1C#Cc1cccc(F)c1 [Example 20, 4-((3-Fluorophenyl)ethynyl)-3-methoxy-N-(2-sulfamoylphenylsulfonyl)benzamide]",12
3,"CC(C)(C)C#Cc1ccc(C(=O)NS(=O)(=O)c2ccccc2S(N)(=O)=O)cc1OCC1CC1 [Example 22, 3-(Cyclopropylmethoxy)-4-(3,3-dimethylbut-1-ynyl)-N-(2-sulfamoylphenylsulfonyl)benzamide]",13
4,"NS(=O)(=O)c1ccccc1S(=O)(=O)NC(=O)c1ccc(C#Cc2ccccc2)c(OCCC(F)(F)F)c1 [Example 65, 4-(Phenylethynyl)-N-(2-sulfamoylphenylsulfonyl)-3-(3,3,3-trifluoropropoxy)benzamide]",6.2
5,"COc1cc(C(=O)NS(=O)(=O)c2ccccc2S(N)(=O)=O)ccc1C#Cc1ccc(C(F)(F)F)cc1 [Example 38, 3-Methoxy-N-(2-sulfamoylphenylsulfonyl)-4-((4-(trifluoromethyl)phenyl)ethynyl)benzamide]",7.3
6,"NS(=O)(=O)c1ccccc1S(=O)(=O)NC(=O)c1ccc(C#CC(C2CC2)C2CC2)c(OCCC(F)(F)F)c1 [Example 36, 4-(3,3-Dicyclopropylprop-1-ynyl)-N-(2-sulfamoylphenylsulfonyl)-3-(3,3,3-trifluoropropoxy)benzamide]",18
7,"CCCC(C)C#Cc1ccc(C(=O)NS(=O)(=O)c2ccccc2S(N)(=O)=O)cc1CO (stereo not drawn) [Example 32, 3-(Hydroxymethyl)-4-(3-methylhex-1-ynyl)-N-(2-sulfamoylphenylsulfonyl)benzamide]",60
8,"NS(=O)(=O)c1ccccc1S(=O)(=O)NC(=O)c1ccc(C#Cc2ccc(F)cc2)cc1 [Example 11, 4-((4-Fluorophenyl)ethynyl)-N-(2-sulfamoylphenylsulfonyl)benzamide]",10
9,"NS(=O)(=O)c1ccccc1S(=O)(=O)NC(=O)c1ccc(C#Cc2ccc(C(F)(F)F)cc2)cc1 [Example 41, N-(2-Sulfamoylphenylsulfonyl)-4-((4-(trifluoromethyl)phenyl)ethynyl)benzamide]",5.7
10,"NS(=O)(=O)c1ccccc1S(=O)(=O)NC(=O)c1ccc(-c2cc3ccccc3o2)c(OCCC(F)(F)F)c1 [Example 59, 4-(Benzofuran-2-yl)-N-(2-sulfamoylphenylsulfonyl)-3-(3,3,3-trifluoropropoxy)benzamide]",8.5
11,"CCCC(C)C#Cc1ccc(C(=O)NS(=O)(=O)c2ccccc2S(N)(=O)=O)cc1OCCOCC(F)(F)F (stereo not drawn) [Example 34, 4-(3-Methylhex-1-ynyl)-N-(2-sulfamoylphenylsulfonyl)-3-(2-(2,2,2-trifluoroethoxy)ethoxy)benzamide]",12
12,"COc1cc(C(=O)NS(=O)(=O)c2ccccc2S(N)(=O)=O)ccc1COc1ccc(C)cc1 [Example 2, 3-Methoxy-N-(2-sulfamoylphenylsulfonyl)-4-(p-tolyloxymethyl)benzamide]",31
13,"NS(=O)(=O)c1ccccc1S(=O)(=O)NC(=O)c1ccc(C#CC2CCCC2)c(OCC(F)F)c1 [Example 5, 4-(Cyclopentylethynyl)-3-(2,2-difluoroethoxy)-N-(2-sulfamoylphenylsulfonyl)benzamide]",14
14,"COc1cc(C(=O)NS(=O)(=O)c2ccccc2S(N)(=O)=O)ccc1OCc1ccc(C)cc1 [Example 29, 3-Methoxy-4-(4-methylbenzyloxy)-N-(2-sulfamoylphenylsulfonyl)benzamide]",390
15,"CCCC(C)C#Cc1ccc(C(=O)NS(=O)(=O)c2ccccc2S(N)(=O)=O)cc1OCCC(F)(F)F (stereo not drawn) [Example 35, 4-(3-Methylhex-1-ynyl)-N-(2-sulfamoylphenylsulfonyl)-3-(3,3,3-trifluoropropoxy)benzamide]",14
16,"NS(=O)(=O)c1ccccc1S(=O)(=O)NC(=O)c1ccc(C#Cc2cccc(F)c2)cc1 [Example 13, 4-((3-Fluorophenyl)ethynyl)-N-(2-sulfamoylphenylsulfonyl)benzamide]",5.7
17,"NS(=O)(=O)c1ccccc1S(=O)(=O)NC(=O)c1ccc(OCc2ccccc2)c(OCCC(F)(F)F)c1 [Example 30, 4-(Benzyloxy)-N-(2-sulfamoylphenylsulfonyl)-3-(3,3,3-trifluoropropoxy)benzamide]",130
18,"CC(C)(C)C#Cc1ccc(C(=O)NS(=O)(=O)c2ccc(O)cc2S(N)(=O)=O)cc1 [Example 77, 4-Hydroxy-benzene-1,2-disulfonic acid 2-amide 1-[4-(3,3-dimethyl-but-1-ynyl)-benzoylamide]]",61
19,"NS(=O)(=O)c1ccccc1S(=O)(=O)NC(=O)c1ccc(OCc2ccccc2)c(OCC2CC2)c1 [Example 1, 4-(Benzyloxy)-3-(cyclopropylmethoxy)-N-(2-sulfamoylphenylsulfonyl)benzamide]",280
20,"COC(C)(C)CCOc1cc(C(=O)NS(=O)(=O)c2ccccc2S(N)(=O)=O)ccc1C#CC1CC1 [Example 27, 4-(Cyclopropylethynyl)-3-(3-methoxy-3-methylbutoxy)-N-(2-sulfamoylphenylsulfonyl)benzamide]",85
21,"CC(C)(C)C#Cc1ccc(C(=O)NS(=O)(=O)c2ccccc2S(N)(=O)=O)cc1OCCOCC(F)(F)F [Example 61, 4-(3,3-Dimethylbut-1-ynyl)-N-(2-sulfamoylphenylsulfonyl)-3-(2-(2,2,2-trifluoroethoxy)ethoxy)benzamide]",27
22,"NS(=O)(=O)c1ccccc1S(=O)(=O)NC(=O)c1ccc(C#Cc2ccc(C(F)(F)F)cc2)c(CO)c1 [Example 39, 3-(Hydroxymethyl)-N-(2-sulfamoylphenylsulfonyl)-4-((4-(trifluoromethyl)phenyl)ethynyl)benzamide]",22
